# Data from US20230270764A1, “COMPOSITION COMPRISING CANNABINOIDS, TERPENES, AND FLAVONOIDS FOR TREATING DEPRESSION” (priority 2020, published 2023).
# Key:
# Type in all cases: in vivo
# LPS-injected mice [1] = assay: Open field test in the LPS-induced model of depression; details: for distance travelled in the open field compared with vehicle-treated groups: Example 9, 4-6 months-old male C57BL/6, i.p. 1 h before LPS 330 µg/kg, mg/kg: CBD 30, CBDA 1 or 5, CBD 30 plus THC 10, CBD 30 plus BCP 50
# Description: (§1) Animals were housed 2-3/cage, kept in an air-conditioned room (23+°C) and given ad libitum access to food and water. The mice were kept in a reversed light/dark cycle, with lights off from 7 a.m. to 7 p.m. All experiments were approved by the Hebrew University of Jerusalem Ethics Committee on Animal Care and Use. In preparation for the Sucrose Preference Test, mice were habituated 2-3 times to sucrose drinking, by exposing them overnight to two graduated tubes, one containing water and the other containing sucrose solution (1%, w/v). Water and sucrose consumption were measured, and sucrose preference was computed by dividing the amount of sucrose consumed by drinking (ml sucrose) by the total drinking volume (ml of sucrose + water). One day later, the weight of the mice and the food in their cages was weighed for later analysis of food consumption and body weight changes. Groups of mice were injected intraperitoneally (i.p.) with either vehicle (cremophor, ethanol and PBS, 1:1:18 (v/v/v)) or a cannabinoid-based formulation (by itself or with another cannabinoid, or a terpene or a flavonoid). One hour later, each of these groups was injected with LPS (330 µg/kg). All injections were administered at a dose of 10 ml/kg. Four hours following the LPS injection, mice were tested in the Open-Field Test. In this test, the measured locomotor activity reflects not only motor capacity, but particularly the innate motivation for spatial exploration (which increases the distance travelled) and the anxiety level (which reduces the distance travelled, in general, and particularly the distance and time spent in the center of the open field). Each subject was placed near one of the walls of a white 50 X 50 cm^2 arena with 40 cm high walls. The distance travelled (cm), the velocity of the movement (cm/second), the time spent (seconds), distance travelled (cm) in the center area of the arena, as well as the number of entries from the perimeter area into the center of the arena were automatically measured over a 4-minute period, using EthoVision XT video tracking system and software (Noldus, The Netherlands). Twenty-four hours after the LPS injection, mice were tested in the Social Exploration Test. In this test, the subject was placed in an observation cage containing a small metal wire mesh cage with a conspecific mouse inside it. Social exploration, defined as the time of near contact between the nose of the subject and the juvenile in the small cage was recorded for 4 min, using computerized in-house software. Sucrose preference was assessed, as described above, between 8 to 27 hr post LPS injection. Body weight and weight of the food were measured two hours before the LPS injection, and again after 24 hours, and the change in body weight and food consumption were calculated.
# This particular study was conducted in several experimental cohorts, and not all compounds and all measures were studied in all cohort. However, each cohort included a vehicle-treated group; therefore, the scores in each behavioral test were converted to % of mean vehicle-treated group in every individual cohort/experiment. Statistical comparisons were computed using SPSS software and consisted of one-way analyses of variance (ANOVA), followed by post-hoc comparisons with the Student-Newman-Keuls method. […]
# LPS-injected mice [2] = assay: Body weight change and food consumption in the LPS-induced model of depression
# Description: as §1
# This particular study was conducted in several experimental cohorts, and not all compounds and all measures were studied in all cohort. However, each cohort included a vehicle-treated group; therefore, the scores in each behavioral test were converted to % of mean vehicle-treated group in every individual cohort/experiment. Statistical comparisons were computed using SPSS software and consisted of one-way analyses of variance (ANOVA), followed by post-hoc comparisons with the Student-Newman-Keuls method.
# hippocampal microglia = assay: Hippocampal microglia density and morphology (Iba-1 immunohistochemistry) in LPS-injected mice
# Method: Given the suppressive effect of CBD on hippocampal microglia numbers in LPS-injected mice, the effect of Cannabidiolic acid (CBDA), as well as a combination of CBD with the flavonoid kaempferol, was examined to determine if they also produce a similar effect. Mice were firstly injected (i.p.) with CBDA or CBD/kaempferol combination, and 1 hr later were injected with LPS ([…] in 10 ml/kg saline). Brains were removed 24 hr later and prepared for immunohistochemistry, using the microglia marker Iba-1.
# [3] = young adult (2.5-3 months old) male mice, acute CBD
# [4] = young-adult male mice, CBD 30 mg/kg i.p. 3 consecutive days
# [5] = young-adult female mice, CBDA 0.5, 1, 5 mg/kg
# [6] = young-adult male mice, CBDA 1, 5 mg/kg, CBD 25 and CBDA 1 mg/kg
structure (smiles),measurement,setting,value
"C=C(C)[C@@H]1CCC(C)=C[C@H]1c1c(O)cc(CCCCC)cc1O [CBD, cannabidiol]",distance travelled in the open field compared with vehicle-treated groups,LPS-injected mice [1],significantly increased distance travelled
same,distance travelled in open field vs vehicle-LPS group,"LPS-injected mice [1]; Example 18, 7 months-old male mice, 3 daily i.p. injections, LPS 250 µg/kg, CLX 10 and 20 mg/kg or CBD 30 mg/kg by themselves",did not have significant effects
same,number of entries into the center area vs vehicle-LPS group,"LPS-injected mice [1]; Example 18, CBD 30 mg/kg by itself",no significant effects
same,distance moved in the center of the open field vs vehicle-LPS group,"LPS-injected mice [1]; Example 18, celecoxib 10, 20, 30 mg/kg or CBD 30 mg/kg by themselves",no significant effects
same,distance travelled in the open field test,"LPS-injected mice [1]; adult (6-9 months-old) and young adult (2.5-3 months old) female mice, acute CBD, saline or LPS",None of these parameters was influenced by treatment with CBD
same,"distance traveled in the open field test, LPS-injected groups","LPS-injected mice [1]; adult (6-9 months-old) male mice, acute CBD 30 mg/kg",significantly attenuated the suppressive effect of LPS
same,LPS-induced decrease in distance moved in the open field test,LPS-injected mice [1]; [3],None of these parameters was influenced by treatment with CBD
same,attenuation of LPS effect on distance travelled in the open field test,"LPS-injected mice [1]; young-adult male mice, CBD 30 mg/kg i.p. 3 consecutive days, last 1 hr before LPS 330 µg/kg",did not reach statistical significance
same,food consumption over 24 hr vs vehicle-treated group,"LPS-injected mice [2]; Example 9, male C57BL/6, i.p. 1 h before LPS 330 µg/kg, mg/kg: CBD 30, CBD 30 plus THC 10, cannabinol 10, CBD 30 plus BCP 50",consumed significantly more food
same,LPS-induced body weight loss and decrease in food consumption,"LPS-injected mice [2]; adult (6-9 months-old) male mice, acute CBD",not influenced by CBD administration
same,food consumption and body weight,"LPS-injected mice [2]; adult and young adult female mice, acute CBD, saline or LPS",None of these parameters was influenced by treatment with CBD
same,food consumption among the LPS-injected groups,"LPS-injected mice [2]; adult female mice, acute CBD (#p<0.05)",significant difference between the CBD- and vehicle-treated group
same,LPS-induced decreases in body weight and food consumption,LPS-injected mice [2]; [3],None of these parameters was influenced by treatment with CBD
same,LPS-induced body-weight loss,LPS-injected mice [2]; [4],no effects
same,"hippocampal microglia density, CBD- vs Veh-treated LPS mice",hippocampal microglia; [4],significantly reduced
"C=C(C)[C@@H]1CCC(C)=C[C@H]1c1c(O)cc(CCCCC)c(C(=O)O)c1O [CBDA, Cannabidiolic acid]",distance travelled in the open field compared with vehicle-treated groups,LPS-injected mice [1],significantly increased distance travelled
same,open field distance vs Vehicle-treated LPS-injected mice,"LPS-injected mice [1]; young-adult female mice, CBDA 5 mg/kg (not 0.5 or 1)",significantly increased
same,food consumption vs Vehicle-treated LPS-injected mice,"LPS-injected mice [2]; young-adult female mice, CBDA 1 mg/kg",significantly increased
same,body weight reduction,LPS-injected mice [2]; [5],no significant difference
same,body weight reduction and food consumption,LPS-injected mice [2]; [6],no significant differences
same,hippocampal microglia density vs Vehicle,"hippocampal microglia; young-adult female mice, CBDA 1 mg/kg (not 0.5 or 5)",significantly reduced
same,number of branch points of microglia processes vs Vehicle,"hippocampal microglia; young-adult female mice, CBDA 5 mg/kg",significantly increased
same,microglia soma area and processes length,hippocampal microglia; [5],no significant difference
same,number of branch points of microglia processes vs Vehicle,"hippocampal microglia; young-adult male mice, CBDA 1 mg/kg",significantly increased
same,hippocampal microglia density vs Vehicle,"hippocampal microglia; young-adult male mice, CBDA 1 mg/kg (not 5)",significantly reduced
same,microglia soma area and processes length,hippocampal microglia; [6],no significant difference
O=c1c(O)c(-c2ccc(O)cc2)oc2cc(O)cc(O)c12 [kaempferol],open-field activity compared with the Veh-treated LPS group,"LPS-injected mice [1]; adult female mice, kaempferol 60 mg/kg by itself or together with CBD 30 mg/kg",significant elevation in open-field activity
